Laboratory results taken from patent US11578056B2, “Solid forms comprising (S)-2-(2,6-dioxopiperidin-3-yl)-4-((2-fluoro-4-((3-morpholinoazetidin-1-yl)methyl)benzyl)amino)isoindoline-1,3-dione and salts thereof, and compositions comprising and methods of using the same” (Celgene Corporation, priority 2019, dated 2023).

Key:
Assay in all cases: Hematological cell line viability/apoptosis flow cytometry assay
Format in all cases: cell-based
[1] = tested on: SU-DHL-1 cell line; conditions: SU-DHL-1 (DLBCL); 120 h
How it was run: (§1)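 384-well format; serial dilutions 0.00015–10 μM, DMSO 0.1% v/v, 5 days. Annexin V/DRAQ7 flow readout. Viability normalized to DMSO → IC50, Emax, AUC; apoptosis (early + late) vs DMSO → EC50, Ymax, AUC.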

[2] = tested on: NU-DUL-1 cell line; conditions: NU-DUL-1 (DLBCL ABC); 120 h
How it was run: as §1

[3] = tested on: HNT-34 cell line; conditions: HNT-34 (AML), 120 h
How it was run: as §1

[4] = tested on: HG3 cell line; conditions: HG3 (CLL), 120 h
How it was run: as §1

[5] = tested on: L-591 cell line; conditions: L-591 (HL), 120 h
How it was run: as §1

[6] = tested on: L-363 cell line; conditions: L-363 (MM, PCL), 120 h
How it was run: as §1

[7] = tested on: SU-DHL-8 cell line; conditions: SU-DHL-8 (DLBCL GCB); 120 h
How it was run: as §1

[8] = tested on: CI cell line; conditions: CI (CLL), 120 h
How it was run: as §1

[9] = tested on: DOHH2 cell line; conditions: DOHH2 (FL); 120 h
How it was run: as §1

[10] = tested on: HT cell line; conditions: HT (DLBCL GCB); 120 h
How it was run: as §1

[11] = tested on: WILL-1 cell line; conditions: WILL-1 (DLBCL); 120 h
How it was run: as §1

[12] = tested on: OCI-LY10 cell line; conditions: OCI-LY10 (DLBCL ABC); 120 h
How it was run: as §1

[13] = tested on: WA-OSEL cell line; conditions: WA-OSEL (CLL), 120 h
How it was run: as §1

[14] = tested on: CII cell line; conditions: CII (CLL), 120 h
How it was run: as §1

In the case of O=C1CC[C@H](N2C(=O)c3cccc(NCc4ccc(CN5CC(N6CCOCC6)C5)cc4F)c3C2=O)C(=O)N1 [Compound 1, (S)-2-(2,6-dioxopiperidin-3-yl)-4-((2-fluoro-4-((3-morpholinoazetidin-1-yl)methyl)benzyl)amino)isoindoline-1,3-dione], the “% Viable Cells AUC” value [1] is reported as 31.14, the “% Viable Cells Emax” value [1] is reported as 2.485% and the “Apoptosis AUC” value [1] is reported as 690.1. For the same compound, the “Apoptosis Ymax” value [1] was 73.83%, the “% Viable Cells AUC” value [2] was 22.12 and the “% Viable Cells Emax” value [2] was 0.0228%. The “Apoptosis AUC” value [2] was 962.8, the “Apoptosis Ymax” value [2] was 99.84% and the “% Viable Cells AUC” value [3] was 353. The “% Viable Cells Emax” value [3] was 20.47%, the “Apoptosis AUC” value [3] was 130.1 and the “Apoptosis Ymax” value [3] was 44.33%. The EC50 [3] was 876 nM, the IC50 ([3]; read-out: % Viable Cells IC50) was 26 nM and the “% Viable Cells AUC” value [4] was 676.2. For the same compound, the “% Viable Cells Emax” value [4] was 59.58%, the “Apoptosis AUC” value [4] was 131.5 and the “Apoptosis Ymax” value [4] was 14.28%. For the same compound, the EC50 ([4]; HG-3) was 111 nM, the IC50 ([4]; HG-3, read-out: % Viable Cells IC50) was over 10000 nM and the “% Viable Cells AUC” value [5] was 334.2. For the same compound, the “% Viable Cells Emax” value [5] was 34.6%, the “Apoptosis AUC” value [5] was 45.59 and the “Apoptosis Ymax” value [5] was 20.0%. The EC50 [5] was 1520 nM, the IC50 ([5]; read-out: % Viable Cells IC50) was 0.3 nM and the EC50 ([6]; Homo sapiens) was 7950 nM. For the same compound, the IC50 ([6]; Homo sapiens, read-out: % Viable Cells IC50) was 1 nM, the “% Viable Cells AUC” value [6] was 309.1 and the “% Viable Cells Emax” value [6] was 27.6%. For the same compound, the “Apoptosis AUC” value [6] was 2.954, the “Apoptosis Ymax” value [6] was 2% and the “% Viable Cells AUC” value [7] was 119.5. For the same compound, the “% Viable Cells Emax” value [7] was 2.081%, the “Apoptosis AUC” value [7] was 363.2 and the “Apoptosis Ymax” value [7] was 85.44%. For the same compound, the “% Viable Cells AUC” value [8] was 603.9, the “% Viable Cells Emax” value [8] was 53.58% and the “Apoptosis AUC” value [8] was 123.2. For the same compound, the “Apoptosis Ymax” value [8] was 13.01%, the EC50 [8] was 22.9 nM and the IC50 ([8]; read-out: % Viable Cells IC50) was 9700 nM. The “% Viable Cells AUC” value [9] was 6.902, the “% Viable Cells Emax” value [9] was 0.2066% and the “Apoptosis AUC” value [9] was 923.9. For the same compound, the “Apoptosis Ymax” value [9] was 95.1%, the “% Viable Cells AUC” value [10] was 396.7 and the “% Viable Cells Emax” value [10] was 30.39%. The “Apoptosis AUC” value [10] was 225.3, the “Apoptosis Ymax” value [10] was 25.16% and the “% Viable Cells AUC” value [11] was 233.7. The “% Viable Cells Emax” value [11] was 4.216%, the “Apoptosis AUC” value [11] was 549.4 and the “Apoptosis Ymax” value [11] was 79.51%. For the same compound, the “% Viable Cells AUC” value [12] was 125.3, the “% Viable Cells Emax” value [12] was 10.16% and the “Apoptosis AUC” value [12] was 188.9. For the same compound, the “Apoptosis Ymax” value [12] was 22.31%, the “% Viable Cells AUC” value [13] was 616.1 and the “% Viable Cells Emax” value [13] was 54.42%. For the same compound, the “Apoptosis AUC” value [13] was 69.39, the “Apoptosis Ymax” value [13] was 7.38% and the EC50 [13] was 112 nM. For the same compound, the IC50 ([13]; read-out: % Viable Cells IC50) was over 10000 nM, the “% Viable Cells AUC” value [14] was 926.1 and the “% Viable Cells Emax” value [14] was 78.23%. For the same compound, the “Apoptosis AUC” value [14] was 238.1, the “Apoptosis Ymax” value [14] was 26.11% and the EC50 [14] was 145 nM. The IC50 ([14]; read-out: % Viable Cells IC50) was over 10000 nM.
